Experimental data reported in ChEMBL document CHEMBL1139771, “Anti-inflammatory property of the urinary metabolites of nobiletin in mouse” (Bioorg Med Chem Lett, 2007).
Active and inactive are the calls of the source. The calls are words filed in the database; no cut-off is given here.

Tests used:
[1] = tested on: RAW264.7; assay: Antiinflammatory activity in mouse RAW264.7 cells assessed as inhibition of LPS-induced nitric oxide production at 10 uM after 24 hrs; type: functional, cell-based
[2] = tested on: RAW264.7; assay: Antiinflammatory activity in mouse RAW264.7 cells assessed as inhibition of LPS-induced nitric oxide production at 30 uM after 24 hrs; type: functional, cell-based
[3] = tested on: RAW264.7; assay: Cytotoxicity against mouse RAW264.7 cells at 30 uM by MTT assay; type: cell-based; details: raw264.7, 30 µM
[4] = tested on: RAW264.7; assay: Inhibition of LPS-induced iNOS protein expression in mouse RAW264.7 cells at 5 uM after 24 hrs by Western blotting; type: functional, cell-based
[5] = tested on: RAW264.7; assay: Inhibition of LPS-induced iNOS protein expression in mouse RAW264.7 cells at 20 uM after 24 hrs by Western blotting; type: functional, cell-based
[6] = tested on: RAW264.7; assay: Inhibition of LPS-induced iNOS gene expression in mouse RAW264.7 cells at 20 uM after 24 hrs by RT-PCR; type: functional, cell-based
[7] = tested on: RAW264.7; assay: Inhibition of LPS-induced COX2 protein expression in mouse RAW264.7 cells at 5 uM after 24 hrs by Western blotting; type: functional, cell-based
[8] = tested on: RAW264.7; assay: Inhibition of LPS-induced COX2 protein expression in mouse RAW264.7 cells at 20 uM after 24 hrs by Western blotting; type: functional, cell-based
[9] = tested on: RAW264.7; assay: Inhibition of LPS-induced COX2 gene expression in mouse RAW264.7 cells at 20 uM after 24 hrs by RT-PCR; type: functional, cell-based

SMILES | Activity [1] | Activity [2] | Activity [3] | Activity [4] | Activity [5] | Activity [6] | Activity [7] | Activity [8] | Activity [9]
COc1ccc(-c2cc(=O)c3c(OC)c(OC)c(OC)c(OC)c3o2)cc1O | Active | Active | Non-toxic | inactive | inactive | inactive | – | – | –
COc1cc(-c2cc(=O)c3c(OC)c(OC)c(OC)c(OC)c3o2)ccc1O | Active | Active | Non-toxic | Active | Active | Active | Active | Active | Active
COc1c(OC)c(OC)c2c(=O)cc(-c3ccc(O)c(O)c3)oc2c1OC | Active | Active | Non-toxic | Active | Active | Active | Active | Active | Active
COc1ccc(-c2cc(=O)c3c(OC)c(OC)c(OC)c(OC)c3o2)cc1OC [NOBILETIN] | inactive | inactive | Non-toxic | – | – | – | – | – | –
